Laboratory results as given in US11638716B2, “Compounds, compositions, and methods for the treatment of disease” (F-star Therapeutics, Inc., priority 2017, dated 2023).

How the values were obtained:
STING KO cells = test: IRF and NF-kB reporter activity in STING KO cells; type: cell-based; conditions: 20 hours
Description: (§1) FIG. 21 depicts cells stably expressing both or either one of the reporters to measure IRF and NF-kB activity were treated with a range of concentrations of compound 1 or DMSO control for 20 hours. IRF activity was assessed using QUANTI-luc to measure levels of Lucia and NF-kB activity was determined by measure SEAP levels at 620-655 nm. % induction was calculated from fold change in luminescence/absorbance compared to DMSO treated sample. EC50 values are generated by curve fit in Xlfit.
as §1, with “22” for “21”, “2” for “1”
as §1, with “24” for “21”, “3” for “1”
as §1, with “27” for “21”, “4” for “1”
(§2) Cells grown in complete media were treated with various concentrations of a compound of the disclosure or DMSO control. Dual cells carry both secreted embryonic alkaline phosphatase (SEAP) reporter gene under the control of an IFN-β minimal promoter fused to five copies of the NF-kB consensus transcriptional response element to measure NF-kB activity and Lucia reporter gene under the control of an ISG54 minimal promoter to measure IRF activity. After 20 h incubation, IRF activity was assessed using QUANTI-luc to measure levels of Lucia and NF-kB activity was determined by measure SEAP levels at 620-655 nm. % induction was calculated from fold change in luminescence/absorbance compared to DMSO treated sample. EC50 values are generated by curve fit in Xlfit.

wild type STING = biological target: T1, wild type STING (Homo sapiens, UniProt Q86WV6, H232R); test: IRF/NF-kB reporter cells, wild type STING; type: cell-based; conditions: 20 hours
T1 construct: expressed in transfected cells; host or cells: THP1-Dual-KI-STING-R232 (made from THP-Dual-STING KO cells)
Description: as §1, with “22” for “21”, “2” for “1”
as §1, with “24” for “21”, “3” for “1”
as §1, with “27” for “21”, “4” for “1”
(§3) Cells grown in complete media were treated with various concentrations of a compound of the disclosure or DMSO control. […] After 20 h incubation, IRF activity was assessed using QUANTI-luc to measure levels of Lucia and NF-kB activity was determined by measure SEAP levels at 620-655 nm. % induction was calculated from fold change in luminescence/absorbance compared to DMSO treated sample. […]

wt-mSTING = biological target: T2, wt-mSTING (Mus musculus, UniProt Q3TBT3); test: IRF/NF-kB reporter cells, wt-mSTING; type: cell-based; conditions: 20 hours
T2 construct: endogenous in cells
T2 sequence (Q3TBT3 1-378): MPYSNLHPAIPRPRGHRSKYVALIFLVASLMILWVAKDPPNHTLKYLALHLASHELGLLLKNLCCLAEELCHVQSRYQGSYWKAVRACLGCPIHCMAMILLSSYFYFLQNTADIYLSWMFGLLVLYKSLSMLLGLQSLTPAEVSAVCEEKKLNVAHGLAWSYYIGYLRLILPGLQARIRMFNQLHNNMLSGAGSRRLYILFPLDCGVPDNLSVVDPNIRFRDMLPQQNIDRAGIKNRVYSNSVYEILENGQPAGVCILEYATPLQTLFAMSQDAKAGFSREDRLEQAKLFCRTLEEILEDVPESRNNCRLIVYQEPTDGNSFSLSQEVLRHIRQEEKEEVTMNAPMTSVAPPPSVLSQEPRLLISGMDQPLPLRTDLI
Description: as §1, with “22” for “21”, “2” for “1”
as §1, with “24” for “21”, “3” for “1”
as §1, with “27” for “21”, “4” for “1”
as §3

IRF = test: In vitro induction of IRF in THP1 dual cells (Lucia reporter, ISG54 promoter); type: cell-based
Description: (§4) Example 2. In Vitro Induction of IRF and NF-κβ in THP1 Cells
(§5) THP1 dual cells grown in complete media were treated with various concentrations of a compound of the present disclosure or DMSO control. Dual cells carry both secreted embryonic alkaline phosphatase (SEAP) reporter gene under the control of an IFN-β minimal promoter fused to five copies of the NF-kB consensus transcriptional response element to measure NF-kB activity and Lucia reporter gene under the control of an ISG54 minimal promoter to measure IRF activity. After 20 h incubation, IRF activity was assessed using QUANTI-luc to measure levels of Lucia and NF-kB activity was determined by measure SEAP levels at 620-655 nm. % induction was calculated from fold change in luminescence/absorbance compared to DMSO treated sample. […] EC50 values were generated by curve fit in Xlfit.
as §2

[1] = test system: peripheral blood mononuclear cells (PBMCs); test: IFNb and TNFa secretion by freshly isolated PBMCs (ELISA); type: cell-based, human; conditions: 20 hours
Description: (§6) FIG. 25 depicts freshly isolated peripheral blood mononuclear cells (PBMCs) treated with a range of concentrations of compound 3 or DMSO control for 20 hours. Supernatants were collected to measure IFNb and TNFa secretion by Verikine-Human IFN beta Serum ELISA kit and Human TNF Alpha ELISA kit respectively. The amount of cytokine releases into supernatant was calculated by a standard curve. Compound 3 induces IFNβ and TNFα secretion in PBMCs after treatment.
as §6, with “29” for “25”, “PBMCs that were” for “peripheral blood mononuclear cells (PBMCs)”, “4” for “3”

NF-κβ = test: In vitro induction of NF-κβ in THP1 dual cells (SEAP reporter); type: cell-based
Description: as §4, §5, §2

[2] = biological target: T3, R71H-G230A-R293Q (HAQ) variant of hSTING (Homo sapiens, UniProt Q86WV6, G230A/H232R/R293Q/R71H); test: IRF/NF-kB reporter cells, STING HAQ variant; type: cell-based; conditions: 20 hours
T3 construct: THP1-Dual-WT cells express STING-HAQ variant; endogenous in cells; host or cells: THP1-Dual-WT cells
Description: as §1, with “22” for “21”, “2” for “1”
as §1, with “24” for “21”, “3” for “1”
as §1, with “27” for “21”, “4” for “1”
as §3

[3] = Homo sapiens, THP-1, 20 h incubation

T3 sequence (Q86WV6 whole entry R71H/G230A/H232R/R293Q): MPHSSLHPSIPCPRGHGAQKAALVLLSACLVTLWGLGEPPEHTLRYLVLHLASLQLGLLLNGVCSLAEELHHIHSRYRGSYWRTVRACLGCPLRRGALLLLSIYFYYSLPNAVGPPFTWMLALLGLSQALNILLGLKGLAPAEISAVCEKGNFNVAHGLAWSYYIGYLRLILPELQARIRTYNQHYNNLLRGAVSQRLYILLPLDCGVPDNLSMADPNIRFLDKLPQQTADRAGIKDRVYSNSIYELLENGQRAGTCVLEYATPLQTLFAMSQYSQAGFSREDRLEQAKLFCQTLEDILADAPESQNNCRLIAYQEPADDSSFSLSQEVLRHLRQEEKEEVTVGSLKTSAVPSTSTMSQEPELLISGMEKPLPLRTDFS
T1 sequence (Q86WV6 whole entry H232R): as the sequence (Q86WV6 whole entry R71H/G230A/H232R/R293Q) above, with H71R, A230G, Q293R counted along it

EC50 (IRF; [3])	EC50 (NF-κβ; [3])	SMILES	IRF activity in STING KO cells (STING KO cells)	NF-κβ in STING KO cells (STING KO cells)	activity against wild type STING (wild type STING)	activity against wt-mSTING (wt-mSTING)	IFNβ secretion [1]	TNFα secretion [1]	activity against R71H-G230A-R293Q (HAQ) variant of hSTING [2]	EC50 (IRF; 20 h incubation)	EC50 (NF-κβ; 20 h incubation)
< 50 nM	> 2000 nM	N.N.Nc1ncnc2c1ncn2[C@@H]1O[C@@H]2COP(=O)(S)O[C@@H]3[C@H](F)[C@@H](COP(=O)(O)O[C@H]2[C@H]1F)O[C@H]3n1ccc(=O)[nH]c1=O (stereo partly drawn) [Compound 3]	did not induce	did not induce	possess activity	possess activity	induces	induces	possess activity		
		CCCCCCCCCCOc1ccc(C(=O)Oc2ccc(CSP3(=O)OC[C@H]4O[C@@H](n5cnc6c(N)ncnc65)[C@H](F)[C@@H]4OP(=O)(O)OC[C@H]4O[C@@H](n5ccc(=O)[nH]c5=O)[C@H](O3)[C@@H]4F)cc2)cc1 (stereo partly drawn) [Compound 4]	did not induce	did not induce	possess activity	possess activity	induces	induces	possess activity	< 50 nM	< 50 nM
